System: Monocotyledonous and dicotyledonous weed seeds and main crop seeds
Test: Post-emergence test experiment (Table 3, 1000 g a.i./ha)
Type: in vivo
Conditions: 3 weeks in greenhouse, fresh weight inhibition
Protocol: The above described growth inhibition rate is fresh weight inhibition rate.
Post-emergence test experiment: Monocotyledonous and dicotyledonous weed seeds and main crop seeds (i. e. wheat, corn, rice, soybean, cotton, oilseed, millet and sorghum.) were put into a plastic pot loaded with soil. Then covered with 0.5-2 cm soil, the seeds were allowed to grow in good greenhouse environment. The test plants were treated at 2-3 leaf stage 2 weeks after sowing. The test compounds of the invention were dissolved with acetone respectively, then added with tween-80, and using 1.5 liters per hectare of an emulsible concentrate of methyl oleate as a synergist, and diluted by certain amount of water to certain concentration. The solution was sprayed to the plants with a sprayer. Then the plants were cultured for 3 weeks in the greenhouse, and the experiment result of weed controlling effect was listed in tables 3-4.

| Structure (SMILES) | Activity level (growth inhibition rate) Digitaria sanguinalis | Activity level (growth inhibition rate) Echinochloa crusgalli | Activity level (growth inhibition rate) Galium spurium | Activity level (growth inhibition rate) Leptochloa chinensis | Activity level (growth inhibition rate) Monochoria Vaginalis | Activity level (growth inhibition rate) Murdannia triquetra | Activity level (growth inhibition rate) Setaria viridis |
| --- | --- | --- | --- | --- | --- | --- | --- |
| CC(Oc1nc(F)c(Cl)c(N)c1Cl)C(=O)ON=Cc1cccc([N+](=O)[O-])c1 (stereo not drawn) [Compound 73] | 5 (Level 5: the growth inhibition rate is greater than 85%) | 5 (Level 5: the growth inhibition rate is greater than 85%) | 5 (Level 5: the growth inhibition rate is greater than 85%) | 5 (Level 5: the growth inhibition rate is greater than 85%) | 5 (Level 5: the growth inhibition rate is greater than 85%) | 5 (Level 5: the growth inhibition rate is greater than 85%) | 5 (Level 5: the growth inhibition rate is greater than 85%) |
| CC(=NOC(=O)C(C)Oc1nc(F)c(Cl)c(N)c1Cl)c1ccc([N+](=O)[O-])cc1 (stereo not drawn) [Compound 71] | 5 (Level 5: the growth inhibition rate is greater than 85%) | 5 (Level 5: the growth inhibition rate is greater than 85%) | 5 (Level 5: the growth inhibition rate is greater than 85%) | 5 (Level 5: the growth inhibition rate is greater than 85%) | 5 (Level 5: the growth inhibition rate is greater than 85%) | 5 (Level 5: the growth inhibition rate is greater than 85%) | 5 (Level 5: the growth inhibition rate is greater than 85%) |
| CC(Oc1nc(F)c(Cl)c(N)c1Cl)C(=O)ON=C(c1ccc(Cl)cc1)c1cccc(F)c1 (stereo not drawn) [Compound 82] | 5 (Level 5: the growth inhibition rate is greater than 85%) | 5 (Level 5: the growth inhibition rate is greater than 85%) | 5 (Level 5: the growth inhibition rate is greater than 85%) | 5 (Level 5: the growth inhibition rate is greater than 85%) | 5 (Level 5: the growth inhibition rate is greater than 85%) | 5 (Level 5: the growth inhibition rate is greater than 85%) | 5 (Level 5: the growth inhibition rate is greater than 85%) |
| CC(Oc1nc(F)c(Cl)c(N)c1Cl)C(=O)ON=C(C(=O)NCCc1ccccc1)c1ccccc1 (stereo not drawn) [Compound 105] | 5 (Level 5: the growth inhibition rate is greater than 85%) | 5 (Level 5: the growth inhibition rate is greater than 85%) | 5 (Level 5: the growth inhibition rate is greater than 85%) | 5 (Level 5: the growth inhibition rate is greater than 85%) | 5 (Level 5: the growth inhibition rate is greater than 85%) | 5 (Level 5: the growth inhibition rate is greater than 85%) | 5 (Level 5: the growth inhibition rate is greater than 85%) |
| CC(Oc1nc(F)c(Cl)c(N)c1Cl)C(=O)ON=C(C(=O)NCc1ccccc1)c1ccccc1 (stereo not drawn) [Compound 101] | 5 (Level 5: the growth inhibition rate is greater than 85%) | 5 (Level 5: the growth inhibition rate is greater than 85%) | 5 (Level 5: the growth inhibition rate is greater than 85%) | 5 (Level 5: the growth inhibition rate is greater than 85%) | 5 (Level 5: the growth inhibition rate is greater than 85%) | 5 (Level 5: the growth inhibition rate is greater than 85%) | 5 (Level 5: the growth inhibition rate is greater than 85%) |
| CC(=O)C(=NOC(=O)C(C)Oc1nc(F)c(Cl)c(N)c1Cl)c1ccc(NOc2ccccc2)cc1 (stereo not drawn) [Compound 91] | 5 (Level 5: the growth inhibition rate is greater than 85%) | 5 (Level 5: the growth inhibition rate is greater than 85%) | 5 (Level 5: the growth inhibition rate is greater than 85%) | 5 (Level 5: the growth inhibition rate is greater than 85%) | 5 (Level 5: the growth inhibition rate is greater than 85%) | 5 (Level 5: the growth inhibition rate is greater than 85%) | 5 (Level 5: the growth inhibition rate is greater than 85%) |
| CSC(=NOC(=O)C(C)Oc1nc(F)c(Cl)c(N)c1Cl)c1ccc(SC)cc1 (stereo not drawn) [Compound 89] | 5 (Level 5: the growth inhibition rate is greater than 85%) | 5 (Level 5: the growth inhibition rate is greater than 85%) | 5 (Level 5: the growth inhibition rate is greater than 85%) | 5 (Level 5: the growth inhibition rate is greater than 85%) | 5 (Level 5: the growth inhibition rate is greater than 85%) | 5 (Level 5: the growth inhibition rate is greater than 85%) | 5 (Level 5: the growth inhibition rate is greater than 85%) |
| CCc1cccc(C(Cl)=NOC(=O)C(C)Oc2nc(F)c(Cl)c(N)c2Cl)c1 (stereo not drawn) [Compound 85] | 5 (Level 5: the growth inhibition rate is greater than 85%) | 5 (Level 5: the growth inhibition rate is greater than 85%) | 5 (Level 5: the growth inhibition rate is greater than 85%) | 5 (Level 5: the growth inhibition rate is greater than 85%) | 5 (Level 5: the growth inhibition rate is greater than 85%) | 5 (Level 5: the growth inhibition rate is greater than 85%) | 5 (Level 5: the growth inhibition rate is greater than 85%) |
| CC(CCCl)=NOC(=O)C(C)Oc1nc(C)c(C)c(N)c1C (stereo not drawn) [Compound 19] | 5 (Level 5: the growth inhibition rate is greater than 85%) | 5 (Level 5: the growth inhibition rate is greater than 85%) | 5 (Level 5: the growth inhibition rate is greater than 85%) | 5 (Level 5: the growth inhibition rate is greater than 85%) | 5 (Level 5: the growth inhibition rate is greater than 85%) | 5 (Level 5: the growth inhibition rate is greater than 85%) | 5 (Level 5: the growth inhibition rate is greater than 85%) |

Reference: patent publication US12643859B2, “Pyridyl oxycarboxylic acid oxime derivative and preparation method therefor, weeding composition and application thereof” (Qingdao Kingagroot Chemical Compound Co., Ltd., priority 2018, dated 2026)
